Assay results from ChEMBL document CHEMBL5154840, “Development of novel dipeptide nitriles as inhibitors of rhodesain of Trypanosoma brucei rhodesiense” (Eur J Med Chem, 2022).
The source made the active and inactive calls. No cut-off for these calls is given here.

Columns and labels:
Rhodesain = Rhodesain (Trypanosoma brucei rhodesiense, UniProt Q95PM0); test: Inhibition of full length Trypanosoma brucei rhodesiense rhodesain expressed in pichia pastoris using Cbz-Phe-Arg-AMC as substrate measured for 10 mins by fluorometric enzyme assays
Chain of Rhodesain (Q95PM0 whole entry): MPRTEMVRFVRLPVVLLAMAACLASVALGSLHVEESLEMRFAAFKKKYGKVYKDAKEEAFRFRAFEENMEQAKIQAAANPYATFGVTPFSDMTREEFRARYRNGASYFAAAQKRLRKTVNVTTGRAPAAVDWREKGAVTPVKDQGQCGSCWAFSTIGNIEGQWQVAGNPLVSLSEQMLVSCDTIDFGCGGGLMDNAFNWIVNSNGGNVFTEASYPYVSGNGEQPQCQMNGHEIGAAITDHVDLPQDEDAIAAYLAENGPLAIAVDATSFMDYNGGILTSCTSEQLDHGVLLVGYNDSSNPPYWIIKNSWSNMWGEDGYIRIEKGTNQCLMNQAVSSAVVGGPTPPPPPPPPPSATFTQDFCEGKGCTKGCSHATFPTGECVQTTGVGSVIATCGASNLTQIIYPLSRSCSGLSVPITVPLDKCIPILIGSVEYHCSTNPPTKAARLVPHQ

[1] = tested on: Trypanosoma brucei brucei; test: Antitrypanosomal activity against Trypanosoma brucei brucei measured after 24 hrs by ATPlite assay; assay type: functional, organism-based
[2] = tested on: Trypanosoma brucei brucei; test: Antitrypanosomal activity against Trypanosoma brucei brucei measured after 48 hrs by ATPlite assay; assay type: functional, organism-based
[3] = molecular target: Rhodesain (Trypanosoma brucei rhodesiense) (UniProt Q95PM0); test: Competitive inhibition of Trypanosoma brucei rhodesiense rhodesain expressed in pichia pastoris using varying concentration of Cbz-Phe-Arg-AMC as substrate by fluorometric enzyme assays
Chain of Rhodesain (Trypanosoma brucei rhodesiense) (Q95PM0 1-450): as the sequence (Q95PM0 whole entry) above

SMILES	Ki (Rhodesain)	EC50 [1]	EC50 [2]	inhibition [3]
CC(C)C[C@H](NC(=O)c1ccc(F)cc1)C(=O)N[C@H](C#N)CCc1ccccc1	0.052 µM	13.3 µM	18.7 µM	–
CC(C)C[C@H](NC(=O)c1ccccc1F)C(=O)N[C@H](C#N)CCc1ccccc1	0.032 µM	21.1 µM	32 µM	–
N#C[C@H](CCc1ccccc1)NC(=O)[C@H](Cc1ccccc1)NC(=O)c1ccc(F)cc1	0.07 µM	10.6 µM	14.5 µM	–
CC(C)C[C@H](NC(=O)c1cccc(F)c1)C(=O)N[C@H](C#N)CCc1ccccc1	0.016 µM	10.1 µM	14.1 µM	Active
N#C[C@H](CCc1ccccc1)NC(=O)[C@H](Cc1ccccc1)NC(=O)c1ccccc1F	0.112 µM	10.3 µM	11.6 µM	–
N#C[C@H](CCc1ccccc1)NC(=O)[C@H](Cc1ccccc1)NC(=O)c1c(F)cccc1F	0.122 µM	5.3 µM	8.8 µM	–
N#C[C@H](CCc1ccccc1)NC(=O)[C@H](Cc1ccccc1)NC(=O)c1ccc(F)cc1F	–	18.7 µM	23.4 µM	–
CC(C)C[C@H](NC(=O)c1c(F)cccc1F)C(=O)N[C@H](C#N)CCc1ccccc1	0.052 µM	18.6 µM	27.1 µM	–
CC(C)C[C@H](NC(=O)c1ccc(F)cc1F)C(=O)N[C@H](C#N)CCc1ccccc1	0.066 µM	19.3 µM	22.5 µM	–
N#C[C@H](CCc1ccccc1)NC(=O)[C@H](Cc1ccccc1)NC(=O)c1cccc(F)c1	0.072 µM	9.1 µM	9.4 µM	–
